Results on five molecules are retold here after ChEMBL document CHEMBL4706663, “Large-scale isolation and antitumor mechanism evaluation of compounds from the traditional Chinese medicine Cordyceps Militaris” (Eur J Med Chem, 2021).

Series [1] has as its system Mus musculus. The series can be described thus: Anti-insomnia activity pentobarbital-induced mouse model of insomnia assessed as number of forelimb lifts at 0.029 mg/kg, ig administered daily for 15 days followed by pentobarbital addition at 1 hr post last dose (reference value: 9.2 +/- 4.31). The following applies: time 15 day. The class given is functional.
Series [2] concerns Mus musculus. The series can be described thus: Anti-insomnia activity pentobarbital-induced mouse model of insomnia assessed as time of sleep latency at 0.029 mg/kg, ig administered daily for 15 days followed by pentobarbital addition at 1 hr post last dose (reference value: 8.1 +/- 6.06 min). The class given is functional. To be noted: time 15 day.
In series [3] the test system is Mus musculus. The series can be described thus: Anti-insomnia activity pentobarbital-induced mouse model of insomnia assessed as time of sleep duration at 0.029 mg/kg, ig administered daily for 15 days followed by pentobarbital addition at 1 hr post last dose (reference value: 17.1 +/- 5.15 min). The class given is functional. The following applies: time 15 day.
Series [4] has as its system Mus musculus. The series can be described thus: Anti-insomnia activity pentobarbital-induced mouse model of insomnia assessed as sleep rate at 0.029 mg/kg, ig administered daily for 15 days followed by pentobarbital addition at 1 hr post last dose relative to control. The series is classed as functional. To be noted: time 15 day.
Series [5] is described as follows: Antitumor activity against human Lewis lung cancer cells xenografted in BALB/c mouse assessed as tumor growth inhibition at 20 mg/kg, ig administered every day for 10 days relative to control. The following applies: Lewis lung carcinoma, po, 240 h, read-out: TGI.
A short description of series [6]: Antitumor activity against human H22 cells xenografted in KM mouse assessed as tumor growth inhibition at 20 mg/kg, ig administered every day for 10 days relative to control. The following applies: H22, po, 240 h, read-out: TGI.
A short description of series [7]: Toxicity in human Lewis lung cancer cells xenografted BALB/c mouse assessed as survival rate at 20 mg/kg, ig administered every day for 10 days (reference value: 100%). To be noted: in vivo, po.
Series [8] is described as follows: Toxicity in human H22 cells xenografted KM mouse assessed as survival rate at 20 mg/kg, ig administered every day for 10 days relative to control. To be noted: in vivo, po.
The test system of series [9] is HepG2. The series can be described thus: Antiproliferative activity against human HepG2 cells assessed as inhibition of cell growth at 12.5 ug/ml measured after 48 hrs by real-time cell analysis relative to control. The class given is functional. The following applies: read-out: GI.
The subject of series [10] is A549. The series can be described thus: Antiproliferative activity against human A549 cells assessed as inhibition of cell growth at 12.5 ug/ml measured after 48 hrs by real-time cell analysis relative to control. The class given is functional. To be noted: read-out: GI.
Series [11] relates to Mus musculus. The series can be described thus: Anti-insomnia activity pentobarbital-induced mouse model of insomnia assessed as sleep rate at 16 mg/kg, ig administered daily for 15 days followed by pentobarbital addition at 1 hr post last dose relative to control. The class given is functional. The following applies: time 15 day.
The test system of series [12] is Mus musculus. The series can be described thus: Anti-insomnia activity pentobarbital-induced mouse model of insomnia assessed as sleep rate at 8 mg/kg, ig administered daily for 15 days followed by pentobarbital addition at 1 hr post last dose relative to control. The series is classed as functional. To be noted: time 15 day.
Series [13] has as its system Mus musculus. The series can be described thus: Anti-insomnia activity pentobarbital-induced mouse model of insomnia assessed as time of sleep duration at 32 mg/kg, ig administered daily for 15 days followed by pentobarbital addition at 1 hr post last dose (reference value: 17.1 +/- 5.15 min). To be noted: time 15 day. The class given is functional.
Series [14] relates to Mus musculus. The series can be described thus: Anti-insomnia activity pentobarbital-induced mouse model of insomnia assessed as time of sleep latency at 32 mg/kg, ig administered daily for 15 days followed by pentobarbital addition at 1 hr post last dose (reference value: 8.1 +/- 6.06 min). The series is classed as functional. To be noted: time 15 day.
Series [15] deals with Mus musculus. The series can be described thus: Anti-insomnia activity pentobarbital-induced ig dosed mouse model of insomnia assessed as reduction in time before sleep administered daily for 15 days followed by pentobarbital addition at 1 hr post last dose. The series is classed as functional, organism-based. The following applies: dose 8-32 mg/kg, time 15.0 day.
Series [16] concerns Mus musculus. The series can be described thus: Anti-insomnia activity pentobarbital-induced mouse model of insomnia assessed as number of forelimb lifts at 32 mg/kg, ig administered daily for 15 days followed by pentobarbital addition at 1 hr post last dose (reference value: 9.2 +/- 4.31). The series is classed as functional. To be noted: time 15 day.
For series [17], the system named is Mus musculus. The series can be described thus: Anti-insomnia activity pentobarbital-induced ig dosed mouse model of insomnia assessed as increase in sleep time administered daily for 15 days followed by pentobarbital addition at 1 hr post last dose. The following applies: dose 8-32 mg/kg, time 15.0 day. The class given is functional, organism-based.
Series [18] relates to Mus musculus. The series can be described thus: Anti-insomnia activity pentobarbital-induced mouse model of insomnia assessed as time of sleep latency at 8 mg/kg, ig administered daily for 15 days followed by pentobarbital addition at 1 hr post last dose (reference value: 8.1 +/- 6.06 min). The series is classed as functional. The following applies: time 15 day.
Series [19] deals with Mus musculus. The series can be described thus: Anti-insomnia activity pentobarbital-induced mouse model of insomnia assessed as time of sleep duration at 8 mg/kg, ig administered daily for 15 days followed by pentobarbital addition at 1 hr post last dose (reference value: 17.1 +/- 5.15 min). To be noted: time 15 day. The class given is functional.
The test system of series [20] is Mus musculus. The series can be described thus: Anti-insomnia activity pentobarbital-induced mouse model of insomnia assessed as time of sleep latency at 16 mg/kg, ig administered daily for 15 days followed by pentobarbital addition at 1 hr post last dose (reference value: 8.1 +/- 6.06 min). The series is classed as functional. The following applies: time 15 day.

For series [21], the system named is Mus musculus. The series can be described thus: Anti-insomnia activity pentobarbital-induced mouse model of insomnia assessed as time of sleep duration at 16 mg/kg, ig administered daily for 15 days followed by pentobarbital addition at 1 hr post last dose (reference value: 17.1 +/- 5.15 min). The series is classed as functional. The following applies: time 15 day.

Series [22] concerns Mus musculus. The series can be described thus: Anti-insomnia activity pentobarbital-induced mouse model of insomnia assessed as sleep rate at 32 mg/kg, ig administered daily for 15 days followed by pentobarbital addition at 1 hr post last dose relative to control. The class given is functional. To be noted: time 15 day.
In series [23] the test system is Mus musculus. The series can be described thus: Anti-insomnia activity pentobarbital-induced mouse model of insomnia assessed as number of forelimb lifts at 16 mg/kg, ig administered daily for 15 days followed by pentobarbital addition at 1 hr post last dose (reference value: 9.2 +/- 4.31). The series is classed as functional. To be noted: time 15 day.
For series [24], the system named is Mus musculus. The series can be described thus: Anti-insomnia activity pentobarbital-induced mouse model of insomnia assessed as number of forelimb lifts at 8 mg/kg, ig administered daily for 15 days followed by pentobarbital addition at 1 hr post last dose (reference value: 9.2 +/- 4.31). The series is classed as functional. To be noted: time 15 day.

Each structure is given as a SMILES string.

As to `Clc1ccc2c(c1)C(c1ccccc1)=NCc1nncn1-2` [ESTAZOLAM], the results for the Activity in series [1] and in series [4] were 4.1 and 60%, respectively. Moreover, the Time in series [2] came to 5.9 min; in [3], 26 min.

`O=P1(N(CCCl)CCCl)NCCCO1` (stereo unspecified) [CYCLOPHOSPHAMIDE ANHYDROUS]: the values for the inhibition in vivo at 20 mg/kg in series [5] and in [6] were 46.3% and 52.9%, respectively. The survival at 240 h in series [7] and in [8] was 100% in each case.

`CC(C)[C@@H](C)/C=C/[C@@H](C)[C@H]1CC[C@H]2C3=CC(=O)[C@@]4(O)C[C@@H](O)CC[C@]4(C)[C@H]3CC[C@]12C`: the inhibition of growth at 12.5 µg/mL in series [9] and in [10] was 100% each time.

On to `C/C(=C\[C@@H](C)[C@H]1CC[C@@H]2[C@]1(C)CC[C@H]1[C@]23C=C[C@]2(C[C@@H](O)CC[C@]12C)OO3)[C@H](C)C(C)C`, for which the inhibition of growth at 12.5 µg/mL in series [9] and in [10] was 100% throughout.

For the molecule `OCCNc1ncnc2c1ncn2[C@@H]1O[C@H](CO)[C@@H](O)[C@H]1O`, the Activity is 40% in series [11]; 20% in [12]; “Dose-dependent effect” in [15]; 3.3 in series [16]; “Dose-dependent effect” in series [17]; 60% in series [22]. The Activity in series [23] came to 3.9; in series [24], 9. Also, the Time in [13] is given as 34.5 min; in [14] it was 5.1 min; in [18], 5.7 min; in series [19], 24.2 min; in series [20], 5.2 min; in series [21], 26.2 min.
